Test results published in patent US4187312A, “3-Hydroxy-4,4-dimethyl-5-pyrrolidone derivatives” (Beecham Group Limited, priority 1975, dated 1980).

Tests used:
[1] = tested on: aerosol administered histamine challenge; test: protection of conscious guinea pigs from an aerosol administered histamine challenge; format: in vivo, guinea pig; settings: 30 minutes before continuous aerosol of histamine
Procedure: The compounds were examined for their ability to protect conscious guinea pigs from an aerosol administered histamine challenge. The compounds were given 30 minutes before the animals were challenged with a continuous aerosol of histamine.

[2] = tested on: pentagastrin-stimulated gastric acid secretion; test: inhibition of pentagastrin-stimulated gastric acid secretion in the perfused rat stomach preparation (Ghosh and Schild preparation); format: in vivo; settings: 500 μg/kg, intravenously
Procedure: The anti-secretory activity of the compounds was determined by their inhibition of pentagastrin-stimulated gastric acid secretion in the perfused rat stomach preparation (Ghosh and Schild preparation).

[3] = tested on: 5-hydroxytryptamine-induced bronchoconstriction; test: inhibition of 5-hydroxytryptamine-induced bronchoconstriction in the anaesthetised, artificially respired guinea pig (Konzett-Rossler preparation); format: in vivo; settings: Cavia porcellus, iv, intravenously, read-out: inhibition of bronchoconstriction, IC50
Description: The compounds were examined for their ability to inhibit 5-hydroxytryptamine-induced bronchoconstriction in the anaesthetised, artificially respired guinea pig (Konzett-Rossler preparation).

mice = test: toxicity in mice; format: in vivo; settings: dosed up to 900 mg/kg, subcutaneously

SMILES	time taken to elicit a pre-convulsive cough compared with control animals ([1]; 2.5 mg/kg, intra-peritoneally)	time taken to elicit a pre-convulsive cough compared with control animals ([1]; 10 mg/kg orally)	inhibition of acid secretion [2]	ED50 [3]	toxic symptoms (mice)
CCCCCCC(C)(O)CCN1C(=O)C(C)(C)C(=O)C1CCCCCCC(=O)O (centres unmarked) [2-(6'-Carboxy-n-hexyl)-4,4-dimethyl-1-(3"-hydroxy-3"-methyl-n-nonyl)pyrrolidin-3,5-dione]	significantly prolonged	significantly prolonged	–	–	–
CCCCCCC(C)(O)CCN1C(=O)C(C)(C)C(=O)C1CCCCCCC(=O)OCC (centres unmarked) [4,4-Dimethyl-2-(6'-ethoxycarbonyl-n-hexyl)-1-(3"-hydroxy-3"-methyl-n-nonyl)-pyrrolidin-3,5-dione]	–	–	inhibited acid secretion	~0.01 mg/kg	No toxic symptoms were observed
